Experimental data from ChEMBL document CHEMBL2074416, “High-affinity interaction of tyrosine kinase inhibitors with the ABCG2 multidrug transporter” (Mol Pharmacol, 2004).

Key:
[1] = target: T1, Broad substrate specificity ATP-binding cassette transporter ABCG2 (Homo sapiens, UniProt Q9UNQ0); assay: TP_TRANSPORTER: stimulation of ATPase activity (0.1~1 u M) in BCRP-expressing Sf9 cells; assay type: functional, cell membranes, Membrane
T1 sequence (Q9UNQ0 whole entry): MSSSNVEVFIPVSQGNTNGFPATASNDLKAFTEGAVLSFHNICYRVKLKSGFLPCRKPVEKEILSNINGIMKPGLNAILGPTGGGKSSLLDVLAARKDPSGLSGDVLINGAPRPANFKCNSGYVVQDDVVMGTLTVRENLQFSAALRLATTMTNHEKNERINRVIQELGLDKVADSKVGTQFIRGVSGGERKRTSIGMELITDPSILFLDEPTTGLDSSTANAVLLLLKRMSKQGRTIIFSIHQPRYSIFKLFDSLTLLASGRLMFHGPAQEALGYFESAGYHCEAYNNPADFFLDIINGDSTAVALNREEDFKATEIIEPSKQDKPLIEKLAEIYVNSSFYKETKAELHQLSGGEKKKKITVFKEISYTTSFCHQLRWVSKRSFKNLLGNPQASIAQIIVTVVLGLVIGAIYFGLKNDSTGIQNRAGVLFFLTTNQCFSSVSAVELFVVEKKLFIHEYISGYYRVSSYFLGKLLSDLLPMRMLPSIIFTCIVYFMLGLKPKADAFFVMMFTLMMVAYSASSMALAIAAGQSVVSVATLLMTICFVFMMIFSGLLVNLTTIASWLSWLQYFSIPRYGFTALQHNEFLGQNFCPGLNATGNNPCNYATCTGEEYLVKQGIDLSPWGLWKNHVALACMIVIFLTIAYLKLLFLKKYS

[2] = target: T1, Broad substrate specificity ATP-binding cassette transporter ABCG2; assay: TP_TRANSPORTER: efflux of Hoechst33342 in BCRP-expressing Sf9 cells; assay type: functional

Structure (SMILES) | Activity [1] | IC50 [2] [nM]
CC#CC(=O)Nc1ccc2ncnc(Nc3cccc(Br)c3)c2c1 | inhibitor [] | 200
COc1cc2ncnc(Nc3ccc(F)c(Cl)c3)c2cc1OCCCN1CCOCC1 [GEFITINIB] | inhibitor [] | –
